Experimental data: ChEMBL document CHEMBL2069273, “Modulation of cofilin phosphorylation by inhibition of the Lim family kinases” (Bioorg Med Chem Lett, 2012)
Activity calls are given as the source filed them. No cut-off for these calls is given here.

Experiments:
[1] = target: Dual specificity testis-specific protein kinase 1 (Homo sapiens, UniProt Q15569); experiment: Inhibition of TESK1
LIM domain kinase 2 [2] = target: T1, LIM domain kinase 2 (Homo sapiens, UniProt P53671); experiment: Inhibition of LIMK2
Target sequence in this assay (P53671 whole entry, the tested form may be a part): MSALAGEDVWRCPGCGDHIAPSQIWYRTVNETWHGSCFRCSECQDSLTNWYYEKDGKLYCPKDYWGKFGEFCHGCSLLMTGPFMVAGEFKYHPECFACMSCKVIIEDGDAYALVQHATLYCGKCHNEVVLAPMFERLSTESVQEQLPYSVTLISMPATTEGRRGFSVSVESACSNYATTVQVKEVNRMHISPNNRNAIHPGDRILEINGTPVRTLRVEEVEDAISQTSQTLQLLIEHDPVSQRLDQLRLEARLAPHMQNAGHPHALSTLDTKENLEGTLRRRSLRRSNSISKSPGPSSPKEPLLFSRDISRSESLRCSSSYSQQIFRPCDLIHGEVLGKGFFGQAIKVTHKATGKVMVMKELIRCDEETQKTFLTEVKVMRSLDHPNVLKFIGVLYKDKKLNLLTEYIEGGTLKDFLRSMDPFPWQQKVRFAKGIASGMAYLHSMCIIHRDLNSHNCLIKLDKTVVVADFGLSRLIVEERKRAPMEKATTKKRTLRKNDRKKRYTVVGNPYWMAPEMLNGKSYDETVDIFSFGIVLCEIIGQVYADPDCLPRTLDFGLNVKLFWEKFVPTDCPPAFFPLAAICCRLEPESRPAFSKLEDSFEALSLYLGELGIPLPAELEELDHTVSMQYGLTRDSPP

LIM domain kinase 1 [3] = target: T2, LIM domain kinase 1 (Homo sapiens, UniProt P53667); experiment: Inhibition of LIMK1
Target sequence in this assay (P53667 whole entry, the tested form may be a part): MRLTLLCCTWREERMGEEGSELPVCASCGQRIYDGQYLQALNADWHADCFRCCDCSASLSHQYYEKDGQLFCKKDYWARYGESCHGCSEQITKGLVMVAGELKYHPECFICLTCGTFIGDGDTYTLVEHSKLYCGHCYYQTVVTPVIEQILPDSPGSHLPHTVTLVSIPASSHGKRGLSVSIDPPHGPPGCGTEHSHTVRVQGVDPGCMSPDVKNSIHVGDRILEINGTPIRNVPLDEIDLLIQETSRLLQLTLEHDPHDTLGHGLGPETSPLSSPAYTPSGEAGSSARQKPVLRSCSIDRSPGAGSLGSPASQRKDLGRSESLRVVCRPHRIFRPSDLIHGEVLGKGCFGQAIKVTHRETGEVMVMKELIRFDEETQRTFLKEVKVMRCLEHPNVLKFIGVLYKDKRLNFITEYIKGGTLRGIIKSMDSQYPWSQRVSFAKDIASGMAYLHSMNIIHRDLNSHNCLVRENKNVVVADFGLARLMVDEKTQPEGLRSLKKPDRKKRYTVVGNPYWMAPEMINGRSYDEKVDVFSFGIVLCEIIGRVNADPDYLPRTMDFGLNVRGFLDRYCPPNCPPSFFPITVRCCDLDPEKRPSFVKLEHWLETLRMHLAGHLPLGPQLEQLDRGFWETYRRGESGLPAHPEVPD

[4] = target: T3, Dual specificity testis-specific protein kinase 2 (Homo sapiens, UniProt Q96S53); experiment: Inhibition of TESK2
Target sequence in this assay (Q96S53 whole entry): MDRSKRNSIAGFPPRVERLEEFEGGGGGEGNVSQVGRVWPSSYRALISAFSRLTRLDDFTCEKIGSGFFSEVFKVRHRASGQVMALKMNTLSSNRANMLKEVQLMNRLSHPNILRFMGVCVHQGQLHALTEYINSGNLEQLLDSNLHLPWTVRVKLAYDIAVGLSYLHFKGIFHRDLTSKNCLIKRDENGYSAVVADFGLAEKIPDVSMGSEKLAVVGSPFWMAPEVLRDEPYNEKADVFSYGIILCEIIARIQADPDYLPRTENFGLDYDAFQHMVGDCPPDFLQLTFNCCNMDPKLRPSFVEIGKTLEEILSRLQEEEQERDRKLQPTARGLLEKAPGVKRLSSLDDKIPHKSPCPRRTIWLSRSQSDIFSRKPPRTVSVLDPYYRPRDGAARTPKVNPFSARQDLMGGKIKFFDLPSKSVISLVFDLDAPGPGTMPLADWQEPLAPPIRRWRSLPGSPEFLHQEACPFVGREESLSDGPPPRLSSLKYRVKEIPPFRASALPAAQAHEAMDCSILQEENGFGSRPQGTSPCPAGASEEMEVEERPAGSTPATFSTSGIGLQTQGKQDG

[5] = target: T4, Mitogen-activated protein kinase 14 (Homo sapiens, UniProt Q16539); experiment: Inhibition of MAPK p38alpha
[6] = target: T3, Dual specificity testis-specific protein kinase 2; experiment: Inhibition of TESK2 at 30 uM
Target sequence in this assay (Q96S53 whole entry, looked up): as the sequence (Q96S53 whole entry) above

[7] = target: T5, Serine/threonine-protein kinase 36 (Homo sapiens) (UniProt Q9NRP7); experiment: Binding affinity to human fused kinase
T5 sequence (whole entry): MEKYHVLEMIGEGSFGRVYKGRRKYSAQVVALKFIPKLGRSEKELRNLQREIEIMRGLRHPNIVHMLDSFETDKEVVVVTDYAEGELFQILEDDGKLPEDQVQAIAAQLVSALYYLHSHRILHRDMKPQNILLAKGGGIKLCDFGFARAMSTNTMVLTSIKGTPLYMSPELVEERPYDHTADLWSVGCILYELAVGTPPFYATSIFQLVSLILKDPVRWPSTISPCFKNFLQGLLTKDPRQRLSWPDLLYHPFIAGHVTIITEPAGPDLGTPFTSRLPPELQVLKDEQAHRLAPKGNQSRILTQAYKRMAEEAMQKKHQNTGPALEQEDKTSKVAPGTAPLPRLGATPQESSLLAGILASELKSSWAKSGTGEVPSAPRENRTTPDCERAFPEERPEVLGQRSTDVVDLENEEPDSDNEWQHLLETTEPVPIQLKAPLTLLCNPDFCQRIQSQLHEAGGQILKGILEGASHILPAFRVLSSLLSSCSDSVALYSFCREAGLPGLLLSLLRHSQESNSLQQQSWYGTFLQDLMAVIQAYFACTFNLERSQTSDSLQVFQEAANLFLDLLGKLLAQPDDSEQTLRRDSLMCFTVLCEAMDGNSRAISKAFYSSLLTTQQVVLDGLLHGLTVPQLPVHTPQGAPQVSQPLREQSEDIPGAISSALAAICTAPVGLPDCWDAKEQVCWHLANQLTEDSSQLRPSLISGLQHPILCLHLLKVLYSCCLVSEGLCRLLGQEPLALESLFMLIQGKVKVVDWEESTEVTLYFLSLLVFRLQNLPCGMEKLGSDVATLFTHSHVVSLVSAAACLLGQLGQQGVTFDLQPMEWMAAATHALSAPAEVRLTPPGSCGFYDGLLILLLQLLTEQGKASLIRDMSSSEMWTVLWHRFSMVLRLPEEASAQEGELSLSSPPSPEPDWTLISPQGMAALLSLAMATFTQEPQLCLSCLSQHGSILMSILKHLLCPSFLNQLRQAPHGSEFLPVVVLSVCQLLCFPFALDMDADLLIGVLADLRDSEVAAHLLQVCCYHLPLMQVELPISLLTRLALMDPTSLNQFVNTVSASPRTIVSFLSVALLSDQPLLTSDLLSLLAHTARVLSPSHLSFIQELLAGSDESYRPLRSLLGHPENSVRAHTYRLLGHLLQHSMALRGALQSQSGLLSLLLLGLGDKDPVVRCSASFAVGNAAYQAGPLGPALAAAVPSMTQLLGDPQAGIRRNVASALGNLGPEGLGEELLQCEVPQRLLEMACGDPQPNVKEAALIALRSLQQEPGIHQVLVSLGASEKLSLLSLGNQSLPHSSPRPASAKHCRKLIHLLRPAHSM

[8] = target: T6, Activin receptor type-1B (Homo sapiens) (UniProt P36896); experiment: Binding affinity to human Alk4
T6 sequence (whole entry): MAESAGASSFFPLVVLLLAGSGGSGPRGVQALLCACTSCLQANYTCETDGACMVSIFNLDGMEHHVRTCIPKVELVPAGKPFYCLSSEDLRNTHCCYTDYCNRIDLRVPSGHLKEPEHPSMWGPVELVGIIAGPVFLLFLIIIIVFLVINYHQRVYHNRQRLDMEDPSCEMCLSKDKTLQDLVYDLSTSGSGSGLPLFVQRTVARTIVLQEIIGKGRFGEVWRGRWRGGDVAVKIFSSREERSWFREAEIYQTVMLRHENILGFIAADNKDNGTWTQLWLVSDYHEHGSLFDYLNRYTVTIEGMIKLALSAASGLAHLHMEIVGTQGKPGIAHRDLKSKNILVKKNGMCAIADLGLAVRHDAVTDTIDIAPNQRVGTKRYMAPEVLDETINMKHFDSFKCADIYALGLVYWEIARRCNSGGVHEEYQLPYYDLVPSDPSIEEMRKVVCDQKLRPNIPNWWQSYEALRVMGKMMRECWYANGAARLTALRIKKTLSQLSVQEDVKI

HT-1080 [9] = experiment: Cytotoxicity against human HT1080 cells assessed as inhibition of thymidine incorporation; type: cell-based
[10] = target: T4, Mitogen-activated protein kinase 14; experiment: Binding affinity to human p38alpha
[11] = target: Mast/stem cell growth factor receptor Kit (Homo sapiens) (UniProt P10721); experiment: Binding affinity to human KIT
[12] = target: Epithelial discoidin domain-containing receptor 1 (Homo sapiens) (UniProt Q08345); experiment: Binding affinity to human DDR1
[13] = test system: Mast/stem cell growth factor receptor Kit (Homo sapiens), P10721 [V559D]; experiment: Binding affinity to human KIT V559D mutant
HT-1080 [14] = experiment: Induction of F-actin depolymerization in human HT1080 cells at 5 uM after 2 days by fluorescein-tagged phalloidin staining; type: functional, cell-based
LIM domain kinase 2 [15] = target: T1, LIM domain kinase 2; experiment: Inhibition of LIMK2-mediated cofilin Ser3 phosphorylation in human HT1080 cells; type: cell-based; conditions: HT-1080
Target sequence in this assay (P53671 whole entry, looked up, the tested form may be a part): as the sequence (P53671 whole entry, the tested form may be a part) above

[16] = target: T7, TGF-beta receptor type-1 (Homo sapiens) (UniProt P36897); experiment: Binding affinity to human TGFBR1
T7 sequence (whole entry): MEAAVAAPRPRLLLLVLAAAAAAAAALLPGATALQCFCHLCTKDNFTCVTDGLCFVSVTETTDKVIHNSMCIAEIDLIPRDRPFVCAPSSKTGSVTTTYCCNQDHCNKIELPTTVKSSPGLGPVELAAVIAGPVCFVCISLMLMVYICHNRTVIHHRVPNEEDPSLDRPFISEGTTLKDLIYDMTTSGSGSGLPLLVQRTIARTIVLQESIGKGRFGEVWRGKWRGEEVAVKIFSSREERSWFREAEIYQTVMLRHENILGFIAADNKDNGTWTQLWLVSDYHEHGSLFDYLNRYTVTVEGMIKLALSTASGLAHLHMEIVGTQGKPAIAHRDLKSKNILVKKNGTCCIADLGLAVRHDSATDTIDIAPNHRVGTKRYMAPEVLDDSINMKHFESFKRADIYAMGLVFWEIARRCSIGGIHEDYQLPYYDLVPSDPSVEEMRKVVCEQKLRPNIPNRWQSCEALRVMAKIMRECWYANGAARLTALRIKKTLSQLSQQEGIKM

[17] = target: Angiopoietin-1 receptor (Homo sapiens) (UniProt Q02763); experiment: Binding affinity to human TIE2
LIM domain kinase 2 [18] = target: T1, LIM domain kinase 2; experiment: Binding affinity to human LIMK2
Target sequence in this assay (P53671 whole entry, looked up, the tested form may be a part): as the sequence (P53671 whole entry, the tested form may be a part) above

LIM domain kinase 1 [19] = target: T2, LIM domain kinase 1; experiment: Inhibition of LIMK1-mediated cofilin Ser3 phosphorylation in human HT1080 cells; type: cell-based; conditions: HT-1080

Chain of Dual specificity testis-specific protein kinase 1 (Q15569 whole entry, the tested form may be a part): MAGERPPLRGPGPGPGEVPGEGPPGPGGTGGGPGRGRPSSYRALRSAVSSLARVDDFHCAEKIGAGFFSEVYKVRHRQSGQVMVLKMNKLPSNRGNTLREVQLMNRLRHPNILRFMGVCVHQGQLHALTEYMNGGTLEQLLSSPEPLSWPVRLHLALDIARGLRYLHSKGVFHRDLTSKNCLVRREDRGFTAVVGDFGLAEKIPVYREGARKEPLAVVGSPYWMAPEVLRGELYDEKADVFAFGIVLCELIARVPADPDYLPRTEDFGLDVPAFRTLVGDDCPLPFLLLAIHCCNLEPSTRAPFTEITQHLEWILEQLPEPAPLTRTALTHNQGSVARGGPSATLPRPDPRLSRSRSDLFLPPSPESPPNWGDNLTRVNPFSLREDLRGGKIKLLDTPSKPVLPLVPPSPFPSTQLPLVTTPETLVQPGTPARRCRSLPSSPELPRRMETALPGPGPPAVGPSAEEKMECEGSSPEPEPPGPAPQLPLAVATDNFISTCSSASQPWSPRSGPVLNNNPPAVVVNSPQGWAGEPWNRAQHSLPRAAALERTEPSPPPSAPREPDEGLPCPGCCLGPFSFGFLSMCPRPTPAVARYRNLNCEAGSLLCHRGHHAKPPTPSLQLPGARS
T4 sequence (Q16539 whole entry): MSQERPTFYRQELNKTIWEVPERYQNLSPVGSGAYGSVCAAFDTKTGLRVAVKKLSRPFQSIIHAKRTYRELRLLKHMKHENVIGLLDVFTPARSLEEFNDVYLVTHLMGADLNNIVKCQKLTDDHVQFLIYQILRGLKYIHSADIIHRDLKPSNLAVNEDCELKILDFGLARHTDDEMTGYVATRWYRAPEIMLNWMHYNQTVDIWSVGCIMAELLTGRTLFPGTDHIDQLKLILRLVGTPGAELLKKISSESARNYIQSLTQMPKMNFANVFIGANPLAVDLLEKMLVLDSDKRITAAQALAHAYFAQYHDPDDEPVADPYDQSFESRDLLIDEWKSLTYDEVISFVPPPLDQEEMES
Chain of Epithelial discoidin domain-containing receptor 1 (Homo sapiens) (Q08345 whole entry, the tested form may be a part): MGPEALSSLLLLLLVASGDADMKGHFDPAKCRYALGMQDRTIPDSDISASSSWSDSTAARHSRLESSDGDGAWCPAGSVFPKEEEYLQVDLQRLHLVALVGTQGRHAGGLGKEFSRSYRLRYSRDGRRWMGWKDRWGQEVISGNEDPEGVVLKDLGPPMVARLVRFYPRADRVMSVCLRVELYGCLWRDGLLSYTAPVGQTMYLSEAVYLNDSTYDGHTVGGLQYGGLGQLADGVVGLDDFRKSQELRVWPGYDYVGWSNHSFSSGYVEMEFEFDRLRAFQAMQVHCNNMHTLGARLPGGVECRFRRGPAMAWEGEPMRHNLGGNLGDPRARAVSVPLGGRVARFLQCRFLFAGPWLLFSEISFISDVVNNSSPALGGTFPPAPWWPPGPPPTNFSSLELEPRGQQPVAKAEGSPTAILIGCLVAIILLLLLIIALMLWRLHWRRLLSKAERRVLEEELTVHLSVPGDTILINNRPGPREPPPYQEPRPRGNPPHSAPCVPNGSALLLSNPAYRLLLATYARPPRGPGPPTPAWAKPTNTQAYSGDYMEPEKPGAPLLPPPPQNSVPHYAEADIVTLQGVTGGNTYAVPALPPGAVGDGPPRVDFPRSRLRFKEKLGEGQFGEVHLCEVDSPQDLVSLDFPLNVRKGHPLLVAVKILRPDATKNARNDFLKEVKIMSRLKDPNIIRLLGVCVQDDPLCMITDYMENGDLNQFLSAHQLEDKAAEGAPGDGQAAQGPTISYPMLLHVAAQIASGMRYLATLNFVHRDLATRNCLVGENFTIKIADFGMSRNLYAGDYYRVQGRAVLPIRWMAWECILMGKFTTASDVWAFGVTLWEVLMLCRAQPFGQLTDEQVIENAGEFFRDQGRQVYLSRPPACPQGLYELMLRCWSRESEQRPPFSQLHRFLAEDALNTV

Structure (SMILES)	IC50 [1] [nM]	IC50 (LIM domain kinase 2 [2]) [nM]	IC50 (LIM domain kinase 1 [3]) [nM]	IC50 [4] [nM]	further results
CCCNc1ncc(-c2cc(-c3c(Cl)cc(OC4CCCC4)cc3Cl)nc(-c3cnccn3)n2)s1	> 30000	810	250	> 30000	
CCOc1ccc(-c2cc(-c3cnc(NC(C)C)s3)nc(-c3ccccc3F)n2)c(Cl)c1			> 50000		IC50 [5]: 590 nM
COc1cc(C)c(-c2cc(-c3cnc(NC(C)=O)s3)nc(-c3cnccn3)n2)c(C)c1	2260	59	87	612	
CCC(CC)Oc1cc(C)c(-c2cc(-c3cnc(NC(=O)C(C)C)s3)nc(-c3cnccn3)n2)c(C)c1	> 12500	245	172	> 12500	
CCOc1ccc(-c2cc(-c3cnc(NC(C)C)s3)nc(-c3cnccn3)n2)c(Cl)c1			368		IC50 [5]: 2000 nM
CCCNc1ncc(-c2cc(-c3ccc(OC4CCCC4)cc3Cl)nc(-c3cnccn3)n2)s1	> 30000	50000	210	> 30000	
CNC(=O)Nc1ncc(-c2cc(-c3c(Cl)cc(OC)cc3Cl)nc(-c3cnccn3)n2)s1	> 30000	12	32	> 30000	
COC(=O)Nc1ncc(-c2cc(-c3c(C)cc(OC)cc3C)nc(-c3cnccn3)n2)s1	11900	202	284	2740	
CCCNc1ncc(-c2cc(-c3c(Cl)cc(OCCC)cc3Cl)nc(-c3cnccn3)n2)s1	> 30000	141	115	> 30000	
COc1cc(Cl)c(-c2cc(-c3cnc(NC(C)=O)s3)nc(-c3cnccn3)n2)c(Cl)c1	> 30000	8	30	> 30000	
CCCNc1ncc(-c2cc(-c3cc(OCCC4CCCCC4)ccc3Cl)nc(-c3cnccn3)n2)s1	> 30000	28	145	> 30000	
CCOc1ccc(-c2cc(-c3cnc(NC(C)C)s3)nc(-c3ccccn3)n2)c(Cl)c1			485		IC50 [5]: 3940 nM
CCCNc1ncc(-c2cc(-c3c(Cl)cc(OC)cc3Cl)nc(-c3cnccn3)n2)s1	> 30000	16	38		inhibition [6]: 72%
CCNC(=O)Nc1ncc(-c2cc(-c3c(C)cc(OC)cc3C)nc(-c3cnccn3)n2)s1	455	38	58	252	Activity [7]: Active; Activity [8]: Active; IC50 (HT-1080 [9]): > 50000 nM; Activity [10]: inactive; Activity [11]: Active; Activity [12]: Active; Activity [13]: Active; Activity (HT-1080 [14]): Active; inhibition (LIM domain kinase 2 [15]): Dose-dependent effect; Activity [16]: Active; Activity [17]: Active; Activity (LIM domain kinase 2 [18]): Active; inhibition (LIM domain kinase 1 [19]): Dose-dependent effect
CNC(=O)Nc1ncc(-c2cc(-c3c(C)cc(OC)cc3C)nc(-c3cnccn3)n2)s1	1130	16	23	415	

The next lines start with results.

IC50 [1] [nM]	IC50 (LIM domain kinase 2 [2]) [nM]	IC50 (LIM domain kinase 1 [3]) [nM]	IC50 [4] [nM]	Structure (SMILES)	further results
> 30000	1230	1660	> 30000	CCCNc1ncc(-c2cc(-c3ccc(OC)cc3Cl)nc(-c3cnccn3)n2)s1	
> 30000	1220	213	> 30000	CCCNc1ncc(-c2cc(-c3ccc(OC(CC)CC)cc3C)nc(-c3cnccn3)n2)s1	
> 30000	760	12500	> 30000	CCCNc1ncc(-c2cc(-c3cc(OC)ccc3Cl)nc(-c3cnccn3)n2)s1	
> 30000	382	227	> 30000	CCC(CC)Oc1cc(C)c(-c2cc(-c3cnc(NC(=O)OC)s3)nc(-c3cnccn3)n2)c(C)c1	
> 30000	1530	163	> 30000	CCCNc1ncc(-c2cc(-c3c(Cl)cc(OC(CC)CC)cc3Cl)nc(-c3cnccn3)n2)s1	
> 30000	1540	444	> 30000	CCCCCOc1ccc(-c2cc(-c3cnc(NCCC)s3)nc(-c3cnccn3)n2)c(Cl)c1	
> 30000	> 12500	7730	> 30000	CCCNc1ncc(-c2cc(-c3ccc(O)cc3Cl)nc(-c3cnccn3)n2)s1	
> 30000	171	1040	> 30000	CCCNc1ncc(-c2cc(-c3cc(OCCC)ccc3Cl)nc(-c3cnccn3)n2)s1	
> 30000	50000	359	> 30000	CCCNc1ncc(-c2cc(-c3ccc(OC(CC)CC)cc3Cl)nc(-c3cnccn3)n2)s1	
> 30000	311	64	2010	CCC(CC)Oc1cc(C)c(-c2cc(-c3cnc(NC(C)=O)s3)nc(-c3cnccn3)n2)c(C)c1	
2200	173	66	415	CCC(CC)Oc1cc(C)c(-c2cc(-c3cnc(NC(=O)NC)s3)nc(-c3cnccn3)n2)c(C)c1	
